# Measurements: ChEMBL document CHEMBL4229466, “Conformational Propensity and Biological Studies of Proline Mutated LR Peptides Inhibiting Human Thymidylate Synthase and Ovarian Cancer Cell Growth” (J Med Chem, 2018)
# Calls of active or inactive are those of the source. No cut-off for these calls is given here. Non-standard residues stand in square brackets, D forms with d. Residues, ends and D or L forms follow the SMILES beside them.
# Legend:
# IGROV-1 [1] = assay: Cytotoxicity against human IGROV1 cells after 72 hrs; assay type: functional, cell-based; details: IGROV-1, 72 h
# 2008 = assay: Cytotoxicity against human 2008 cells; assay type: functional, cell-based
# C13 = assay: Cytotoxicity against human C13 cells after 72 hrs; assay type: functional, cell-based; details: C13, 72 h
# IGROV-1 [2] = assay: Downregulation of TRAP1 protein levels in human IGROV1 cells by Western blot analysis; assay type: functional, cell-based
# [3] = target: Thymidylate synthase (Homo sapiens) (UniProt P04818); assay: Inhibition of thymidylate synthase in human IGROV1 cell lysate using [5-3H]dUMP as substrate assessed as decrease in residual activity at 5 uM after 60 mins by liquid scintillation counting analysis relative to control
# Sequence of Thymidylate synthase (Homo sapiens) (P04818 2-313 limits assumed): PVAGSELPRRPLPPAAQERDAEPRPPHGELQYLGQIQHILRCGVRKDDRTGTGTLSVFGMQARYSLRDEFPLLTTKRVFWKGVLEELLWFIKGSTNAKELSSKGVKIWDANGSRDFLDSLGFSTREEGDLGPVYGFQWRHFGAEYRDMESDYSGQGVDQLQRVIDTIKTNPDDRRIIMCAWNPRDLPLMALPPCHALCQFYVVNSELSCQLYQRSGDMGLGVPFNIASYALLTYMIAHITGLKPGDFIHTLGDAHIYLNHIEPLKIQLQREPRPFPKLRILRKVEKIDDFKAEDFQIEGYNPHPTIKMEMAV
# IGROV-1 [4] = assay: Effect on DHFR protein expression in human IGROV1 cells by Western blot analysis; assay type: functional, cell-based
# IGROV-1 [5] = assay: Effect on HSP90 protein expression in human IGROV1 cells by Western blot analysis; assay type: functional, cell-based
# IGROV-1 [6] = assay: Effect on TS protein expression in human IGROV1 cells by Western blot analysis; assay type: functional, cell-based
compound,measurement,setting,value
H-LSCQLYQR-OH,IC50,IGROV-1 [1],8.2 µM
same,IC50,2008,4.6 µM
same,IC50,C13,9.5 µM
CC(C)C[C@H](NC(=O)[C@@H](CCC(N)=O)NC(=O)[C@H](CS)NC(=O)[C@H](CO)NC(=O)[C@@H](N)CC(C)C)C(=O)N[C@@H](Cc1ccc(O)cc1)C(=O)N[C@@H](CCC(N)=O)C(=O)N[C@@H](CCCNC(=N)N)C(=O)O (H-LSC[dQ]LYQR-OH),Activity,IGROV-1 [2],Active
O=c1[nH]cc(F)c(=O)[nH]1 [FLUOROURACIL],IC50,IGROV-1 [1],10.6 µM
same,IC50,2008,6 µM
same,IC50,C13,12.1 µM
same,inhibition,[3],Active
Nc1nc2[nH]cc(CCc3ccc(C(=O)N[C@@H](CCC(=O)O)C(=O)O)cc3)c2c(=O)[nH]1,Activity,IGROV-1 [4],Active
same,Activity,IGROV-1 [5],Active
same,Activity,IGROV-1 [6],Active
H-LSPQLYQR-OH,IC50,IGROV-1 [1],6.2 µM
same,Activity,IGROV-1 [4],Active
same,Activity,IGROV-1 [5],Active
same,IC50,2008,0.96 to 1.57 µM
same,IC50,C13,3.55 to 8.1 µM
same,inhibition,[3],25%
same,Activity,IGROV-1 [6],Active
H-LSCQLYPR-OH,IC50,IGROV-1 [1],4.32 µM
same,IC50,2008,0.96 to 1.57 µM
same,IC50,C13,3.55 to 8.1 µM
same,inhibition,[3],> 30%
H-LSCPLYQR-OH,IC50,IGROV-1 [1],4.32 to 12.1 µM
same,Activity,IGROV-1 [4],Active
same,Activity,IGROV-1 [5],Active
same,IC50,2008,0.96 to 1.57 µM
same,Activity,IGROV-1 [2],Active
same,IC50,C13,3.55 to 8.1 µM
same,inhibition,[3],25%
same,Activity,IGROV-1 [6],Active
